This experiment concerns P388. Nature of the experiment: Cytotoxicity against mouse P388 cells. It is filed as functional, cell-based.

Here are results for five molecules from ChEMBL document CHEMBL1151287, “Discorhabdin W, the first dimeric discorhabdin” (J Nat Prod, 2005).

What is called pIC50 is the IC50 on a negative log10 scale, so that one unit is a factor of ten.

pIC50: −log10 of the molar value.

The molecule `O=C1C=C(SSC2=CC(=O)C(Br)=C[C@]23C=CNC2=C3C3=NCCc4c[nH]c(c43)C2=O)[C@@]2(C=CNC3=C2C2=NCCc4c[nH]c(c42)C3=O)C=C1Br` [DISCORHABDIN W] showed a pIC50 of 7.08. On to `O=C1C2=C3C4=[N+](CCc5c[nH]c1c54)[C@H]1C[C@@]34C[C@@H](N2)SC4=CC1=O` [DISCORHABDIN D], for which the pIC50 is 5.80. Consider `O=C1C=C2S[C@H]3C[C@]2(C=C1Br)C1=C(N3)C(=O)c2[nH]cc3c2C1=NCC3` [DISCORHABDIN B], for which the pIC50 is 7.06. The result for `O=C1C2=C3C4=[N+](CCc5c[nH]c1c54)[C@@H]1C(=O)C=C4S[C@@H](C[C@@]43[C@H]1O)N2` [DISCORHABDIN L] reads 5.96; that for `O=C1C=C[C@@]23C[C@@H](NC4=C2C2=NCCc5c[nH]c(c52)C4=O)SC3=C1`, 6.29.
